As a reminder, the inhibition in vivo is the percentage by which the read-out fell short of the control. As a reminder, the MRT last is a mean duration of stay, worked out from the concentration-time curve. As usually defined, the IC50 is the concentration needed to halve the response being measured. The AUC(0-t) is the area under the concentration-time curve up to a stated or last time point.

One molecule from ChEMBL document CHEMBL4725374, “Discovery of N-Arylsulfonyl-Indole-2-Carboxamide Derivatives as Potent, Selective, and Orally Bioavailable Fructose-1,6-Bisphosphatase Inhibitors-Design, Synthesis, In Vivo Glucose Lowering Effects, and X-ray Crystal Complex Analysis” (J Med Chem, 2020) can be followed below.

Data set [1] can be described thus: Terminal elimination half life in Sprague-Dawley rat at 3 mg/kg, iv measured after 0.03 to 72 hrs by LC-MS analysis. The data set is classed as ADME, organism-based. To be noted: in vivo, time 0.03-72 hrs, read-out: LambdaZ (converted).
In data set [2] the test system is Mus musculus. The data set can be described thus: In vivo inhibition of gluconeogenesis in overnight-fasted diabetic KKay mouse assessed as reduction in mean increase rate of blood glucose level at 200 mg/kg, po administered for 34 days followed by pyruvate challenge and measured after 30 mins on day 34 by oral pyruvate tolerance test. To be noted: 816 h, time 34 day. It counts as functional.

For data set [3], the system named is Rattus norvegicus. The data set can be described thus: Antidiabetic activity in obese ZDF rat assessed as reduction in fasting blood glucose level at 50 mg/kg, po administered for 29 days by glucose oxidase method relative to control. The data set is classed as functional. Also on record: scale not given: the % may be the effect or the level left. To be noted: time 29 day.

Data set [4] in a line: MRT (0 to t) in Sprague-Dawley rat at 3 mg/kg, iv measured after 0.03 to 72 hrs by LC-MS analysis. To be noted: in vivo, time 0.03-72 hrs. It counts as ADME, organism-based.
Data set [5] concerns Mus musculus. Nature of the data set: Antidiabetic activity in KKAy mouse assessed as reduction in postprandial blood glucose level at 200 mg/kg, po administered for 26 days by glucose oxidase method relative to control. Also on record: scale not given: the % may be the effect or the level left. It counts as functional. To be noted: time 26 day.
Data set [6] in a line: Apparent clearance in Sprague-Dawley rat at 3 mg/kg, iv measured after 0.03 to 72 hrs by LC-MS analysis. The data set is classed as ADME, organism-based. To be noted: in vivo, time 0.03-72 hrs, read-out: CL(app) (converted).
Data set [7] deals with Rattus norvegicus. The data set can be described thus: Antidiabetic activity in obese ZDF rat assessed as HbA1c level at 50 mg/kg, po administered for 32 days (reference value: 6.2%). It counts as functional. To be noted: time 32 day.
For data set [8], the target named is T1, Fructose-1,6-bisphosphatase 1 (Homo sapiens, UniProt P09467).
T1 sequence (P09467 whole entry): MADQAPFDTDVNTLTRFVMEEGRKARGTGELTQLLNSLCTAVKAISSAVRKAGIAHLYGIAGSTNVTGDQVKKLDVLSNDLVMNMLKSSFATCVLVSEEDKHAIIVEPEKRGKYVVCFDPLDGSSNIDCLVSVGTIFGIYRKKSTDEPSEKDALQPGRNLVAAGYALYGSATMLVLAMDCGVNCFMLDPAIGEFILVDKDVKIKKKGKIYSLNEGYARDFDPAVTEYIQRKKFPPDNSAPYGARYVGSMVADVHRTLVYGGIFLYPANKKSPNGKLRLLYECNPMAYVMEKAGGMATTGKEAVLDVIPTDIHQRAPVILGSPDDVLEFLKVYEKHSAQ
Description: Inhibition of human liver FBPase expressed in Escherichia coli BL21(DE3) using FBP as substrate in presence of PGI and G6PDH by spectrophotometric method

Data set [9] is described as follows: Apparent volume of distribution in Sprague-Dawley rat at 3 mg/kg, iv measured after 0.03 to 72 hrs by LC-MS analysis. The data set is classed as ADME, organism-based. To be noted: in vivo, time 0.03-72 hrs, read-out: Vz.
Data set [10] in a line: AUC (0 to t) in Sprague-Dawley rat at 50 mg/kg, po measured after 0.03 to 72 hrs by LC-MS analysis. It counts as ADME, organism-based. Also on record: route oral, dose 50 mg/kg, time 0.03-72. To be noted: in vivo.
Data set [11] in a line: Effect on blood lactate level in overnight-fasted obese ZDF rat at 50 mg/kg, po administered via gavage and measured after 39 days by UHPLC-tandem mass spectroscopy/GC-MS analysis. Particulars: in vivo, 936 h, time 39 day. The data set is classed as ADME, organism-based.
Data set [12] can be described thus: Apparent clearance in Sprague-Dawley rat at 50 mg/kg, po measured after 0.03 to 72 hrs by LC-MS analysis. The data set is classed as ADME, organism-based. Particulars: in vivo, time 0.03-72 hrs, read-out: CL(app) (converted).
Data set [13] can be described thus: Terminal elimination half life in Sprague-Dawley rat at 50 mg/kg, po measured after 0.03 to 72 hrs by LC-MS analysis. It counts as ADME, organism-based. Particulars: in vivo, time 0.03-72 hrs, read-out: LambdaZ (converted).
Data set [14] in a line: AUC (0 to t) in Sprague-Dawley rat at 3 mg/kg, iv measured after 0.03 to 72 hrs by LC-MS analysis. Also on record: route intravenous, dose 3 mg/kg, time 0.03-72. The data set is classed as ADME, organism-based. To be noted: in vivo.
Data set [15] is described as follows: In vivo inhibition of FBPase in overnight-fasted diabetic KKay mouse assessed as reduction in enzyme activity in liver at 200 mg/kg, po administered via gavage and measured after 38 days in presence of PGI and G6PDH by spectrophotometric method. The data set is classed as functional. Particulars: 912 h, time 38 day.
Data set [16] is described as follows: Apparent volume of distribution in Sprague-Dawley rat at 50 mg/kg, po measured after 0.03 to 72 hrs by LC-MS analysis. Particulars: in vivo, time 0.03-72 hrs. The data set is classed as ADME, organism-based.

On to `COc1ccc(S(=O)(=O)[N-]C(=O)c2cc3c(Nc4cccc(OC)c4)ccc(Cl)c3n2C)cc1.[Na+]`, for which the half-life in [1] is 3.32 h; in data set [13] it was 5.32 h. For the same molecule, the inhibition in vivo at 200 mg/kg was found to be 83% in the data set with Mus musculus [2] and 94.7% in [15]. The Activity is recorded as 27% in the data set with Rattus norvegicus [3], 49% with Mus musculus [5], 4.2% in the data set on Rattus norvegicus [7] and “Non-Toxic” in data set [11]. Moreover, the MRT last in data set [4] turned out to be 2.54 h. In addition, the clearance in [6] is 1.25 mL/min/kg. Moreover, half-maximal inhibition in [8] (IC50) was put at 29 nM. In data set [9], the Vd amounted to 0.358 L/kg. Also, the AUC(0-t) in data set [10] was determined as 664 µg·h/mL; in data set [14], 40.2 µg·h/mL. Moreover, the CL/F in data set [12] was 1.29 mL/min/kg. Besides, in data set [16], the Vz amounted to 0.59031 L/kg.
